Here are results for 19 compounds from patent publication US8003695B2 (Chroma Therapeutics Ltd., priority 2006, dated 2011).

One assay has as its target T1, IKBKB (IKKβ) (Homo sapiens, UniProt O14920).
T1 construct: purchased Invitrogen (Paisley, UK)
T1 sequence (O14920 1-756): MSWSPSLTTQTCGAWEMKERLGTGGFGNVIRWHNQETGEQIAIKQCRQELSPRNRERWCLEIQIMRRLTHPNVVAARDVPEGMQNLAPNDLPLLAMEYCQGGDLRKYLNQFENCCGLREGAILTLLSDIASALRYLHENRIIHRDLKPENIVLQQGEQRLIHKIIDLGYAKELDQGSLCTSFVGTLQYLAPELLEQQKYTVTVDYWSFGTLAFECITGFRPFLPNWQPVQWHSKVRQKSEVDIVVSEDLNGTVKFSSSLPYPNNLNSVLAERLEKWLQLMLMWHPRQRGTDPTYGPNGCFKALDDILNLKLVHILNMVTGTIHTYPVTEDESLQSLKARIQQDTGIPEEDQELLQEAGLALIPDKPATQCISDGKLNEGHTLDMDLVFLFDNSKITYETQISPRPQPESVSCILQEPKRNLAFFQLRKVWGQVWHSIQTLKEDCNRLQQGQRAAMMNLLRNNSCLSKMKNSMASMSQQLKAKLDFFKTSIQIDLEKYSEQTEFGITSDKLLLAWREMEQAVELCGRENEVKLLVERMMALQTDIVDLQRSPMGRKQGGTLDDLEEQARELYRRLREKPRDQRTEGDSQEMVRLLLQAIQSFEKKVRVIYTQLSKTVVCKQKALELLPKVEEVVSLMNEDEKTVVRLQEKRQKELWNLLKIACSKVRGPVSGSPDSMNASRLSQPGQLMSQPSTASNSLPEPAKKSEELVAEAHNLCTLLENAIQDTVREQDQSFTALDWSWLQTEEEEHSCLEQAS
As to the kind of experiment: IKKβ Enzyme Assay (Z'-LYTE, Invitrogen). Format: biochemical. The following applies: ATP at or close to Km; read-out: Inhibitor activity versus IKKβ. As to the method:
The ability of compounds to inhibit IKKβ kinase activity was measured in an assay performed by Invitrogen (Paisley, UK). The Z′-LYTE™ biochemical assay employs a fluorescence-based, coupled-enzyme format and is based on the differential sensitivity of phosphorylated and non-phosphorylated peptides to proteolytic cleavage. The peptide substrate is labelled with two fluorophores—one at each end—that make up a FRET pair. In the primary reaction, the kinase transfers the gamma-phosphate of ATP to a single serine or threonine residue in a synthetic FRET-peptide. In the secondary reaction, a site-specific protease recognizes and cleaves non-phosphorylated FRET-peptides. Phosphorylation of FRET-peptides suppresses cleavage by the Development Reagent. Cleavage disrupts FRET between the donor (i.e., coumarin) and acceptor (i.e. fluorescein) fluorophores on the FRET-peptide, whereas uncleaved, phosphorylated FRET-peptides maintain FRET. A […] method, which calculates the ratio (the Emission Ratio) of donor emission to acceptor emission after excitation of the donor fluorophore at 400 nm, is used to quantitate reaction progress.
The final 10 μL Kinase Reaction consists of 0.9-8.0 ng IKBKB (IKKβ), 2 μM Ser/Thr 05 Peptide and ATP in 50 mM HEPES pH 7.5, 0.01% BRIJ-35, 10 mM MgCl2, 1 mM EGTA. The assay is performed at an ATP concentration at, or close to the Km. After the 60 minute Kinase Reaction incubation at room temperature, 5 μL of a 1:128 dilution of Development Reagent is added. The assay plate is incubated for a further 60 minutes at room temperature and read on a fluorescence plate reader.
Duplicate data points are generated from a ⅓ log dilution series of a stock solution of test compound in DMSO. Nine dilutions steps are made from a top concentration of 10 μM, and a ‘no compound’ blank is included. Data is collected and analysed using XLfit software from IDBS. The dose response curve is curve fitted to model number 205 (sigmoidal dose-response model). From the curve generated, the concentration giving 50% inhibition is determined and reported.

The test system of the next assay is human whole blood. As to the kind of experiment: LPS-Stimulation of Human Whole Blood, TNF-α release. Format: cell-based. The following applies: LPS 100 ng/ml, 6 hrs, read-out: Inhibitor activity versus human whole blood TNFα release. As to the method:
LPS-Stimulation of Human Whole Blood
Whole blood was taken by venous puncture using heparinised vacutainers (Becton Dickinson) and diluted in an equal volume of RPMI1640 tissue culture media (Sigma). 100 μl was plated in V-bottomed 96 well tissue culture treated plates. 2 hrs after the addition of the inhibitor in 100 μl of RPMI1640 media, the blood was stimulated with LPS (E. coli strain 005:B5, Sigma) at a final concentration of 100 ng/ml and incubated at 37° C. in 5% CO2 for 6 hrs. TNF-α levels were measured from cell-free supernatants by sandwich ELISA (R&D Systems #QTA00B)

Another assay concerns THP-1 cells. Nature of the assay: LPS-Stimulation of THP-1 Cells, TNF-α release. The format is cell-based. The following applies: Homo sapiens, LPS 1 μg/ml, 6 hrs, read-out: Inhibitor activity versus THP-1 TNFα release. As to the method: LPS-Stimulation of THP-1 Cells
THP-1 cells were plated in 100 μl at a density of 4×10^4 cells/well in V-bottomed 96 well tissue culture treated plates and incubated at 37° C. in 5% CO2 for 16 hrs. 2 hrs after the addition of the inhibitor in 100 μl of tissue culture media, the cells were stimulated with LPS (E. coli strain 005:85, Sigma) at a final concentration of 1 μg/ml and incubated at 37° C. in 5% CO2 for 6 hrs. TNF-α levels were measured from cell-free supernatants by sandwich ELISA (R&D Systems #QTA00B)

Some results are limits rather than exact numbers.

Consider `NC(=O)Nc1sc(-c2cccc(CN[C@@H](CO)C(=O)OC3CCCC3)c2)cc1C(N)=O` [Example 12, Cyclopentyl N-{3-[4-carbamoyl-5-(carbamoylamino)thiophen-2-yl]benzyl}-L-serinate], for which the IC50 at IKBKB (IKKβ) and with human whole blood was below 1 µM throughout.

`CC(C)[C@H](NCc1cccc(-c2cc(C(N)=O)c(NC(N)=O)s2)c1)C(=O)OC1CCCC1` [Example 15, Cyclopentyl N-{3-[4-carbamoyl-5-(carbamoylamino)thiophen-2-yl]benzyl}-L-valinate]: in the assay with human whole blood, the IC50 lay in the range of 1 to 5 µM.

Consider `CC(C)C[C@H](NCCc1ccc(-c2cc(C(N)=O)c(NC(N)=O)s2)cc1)C(=O)OC1CCCC1` [Example 16, Cyclopentyl N-(2-{4-[4-carbamoyl-5-(carbamoylamino)-2-thienyl]phenyl}ethyl)-L-leucinate], for which the IC50 at IKBKB (IKKβ) and with THP-1 cells was 1 to 5 µM throughout.

As for `CC(C)C[C@H](NCCc1ccc(-c2cc(C(N)=O)c(NC(N)=O)s2)c(Cl)c1)C(=O)OC1CCCC1` [Example 17, Cyclopentyl N-(2-{4-[4-carbamoyl-5-(carbamoylamino)-2-thienyl]-3-chlorophenyl}ethyl)-L-leucinate], the values for the IC50 on IKBKB (IKKβ) and in the assay with THP-1 cells were 1 to 5 µM and above 5 µM, respectively.

Consider `CC(C)(C)OC[C@H](NCCc1cccc(-c2cc(C(N)=O)c(NC(N)=O)s2)c1)C(=O)OC1CCCC1` [Example 20, Cyclopentyl O-tert-butyl-N-(2-{3-[4-carbamoyl-5-(carbamoylamino)-2-thienyl]phenyl}ethyl)-L-serinate], for which the IC50 in the assay on human whole blood was 1 to 5 µM.

On to `C[C@@H](OC(C)(C)C)[C@H](NCCc1cccc(-c2cc(C(N)=O)c(NC(N)=O)s2)c1)C(=O)OC1CCCC1` [Example 21, Cyclopentyl O-tert-butyl-N-(2-{3-[4-carbamoyl-5-(carbamoylamino)-2-thienyl]phenyl}ethyl)-L-threoninate], for which the IC50 with human whole blood is above 5 µM.

With `Cc1ccc(-c2cc(C(N)=O)c(NC(N)=O)s2)cc1CCN[C@@H](CC(C)C)C(=O)OC1CCCC1` [Example 23, Cyclopentyl N-(2-{5-[4-carbamoyl-5-(carbamoylamino)thiophen-2-yl]-2-methylphenyl}ethyl)-L-leucinate], in the assay on human whole blood, the IC50 was above 5 µM.

As for `CC(C)C[C@H](NCCc1cc(-c2cc(C(N)=O)c(NC(N)=O)s2)ccc1Cl)C(=O)OC1CCCC1` [Example 24, Cyclopentyl N-(2-{5-[4-carbamoyl-5-(carbamoylamino)thiophen-2-yl]-2-chlorophenyl}ethyl)-L-leucinate], the IC50 with human whole blood is above 5 µM.

As for `CC(C)C[C@H](NCCCOc1ccc(-c2cc(C(N)=O)c(NC(N)=O)s2)cc1)C(=O)OC1CCCC1` [Example 25, Cyclopentyl N-(3-{4-[4-carbamoyl-5-(carbamoylamino)-2-thienyl]phenoxy}propyl)-L-leucinate], the IC50 at IKBKB (IKKβ) and with THP-1 cells was 1 to 5 µM each time.

Consider `CC(C)C[C@H](NCCCOc1ccc(-c2cc(C(N)=O)c(NC(N)=O)s2)c(Cl)c1)C(=O)OC1CCCC1` [Example 26, Cyclopentyl N-(3-{4-[4-carbamoyl-5-(carbamoylamino)-2-thienyl]-3-chlorophenoxy}propyl)-L-leucinate], for which the IC50 at IKBKB (IKKβ) and with THP-1 cells was 1 to 5 µM each time.

For the compound `CC(C)C[C@H](NCCCCCOc1ccc(-c2cc(C(N)=O)c(NC(N)=O)s2)cc1)C(=O)OC1CCCC1` [Example 27, Cyclopentyl N-(5-{4-[4-carbamoyl-5-(carbamoylamino)-2-thienyl]phenoxy}pentyl)-L-leucinate], the IC50 is below 1 µM on IKBKB (IKKβ) and 1 to 5 µM in the assay on THP-1 cells.

`CC(C)C[C@H](NCCCCCOc1ccc(-c2cc(C(N)=O)c(NC(N)=O)s2)c(Cl)c1)C(=O)OC1CCCC1` [Example 28, Cyclopentyl N-(5-{4-[4-carbamoyl-5-(carbamoylamino)-2-thienyl]-3-chlorophenoxy}pentyl)-L-leucinate]: the results for the IC50 on IKBKB (IKKβ) and with THP-1 cells were above 5 µM and 1 to 5 µM, respectively.

Consider `Cc1cc(-c2cc(C(N)=O)c(NC(N)=O)s2)ccc1/C=C/CN[C@@H](CC(C)C)C(=O)OC1CCCC1` [Example 30, Cyclopentyl N-[(2E)-3-{4-[4-carbamoyl-5-(carbamoylamino)thiophen-2-yl]-2-methylphenyl}prop-2-en-1-yl]-L-leucinate], for which the IC50 on IKBKB (IKKβ) and with THP-1 cells was 1 to 5 µM in each case.

On to `CC(C)C[C@H](NC/C=C/c1ccc(-c2cc(C(N)=O)c(NC(N)=O)s2)c(F)c1)C(=O)OC1CCCC1` [Example 34, Cyclopentyl N-[(2E)-3-{4-[4-carbamoyl-5-(carbamoylamino)thiophen-2-yl]-3-fluorophenyl}prop-2-en-1-yl]-L-leucinate], for which the results for the IC50 at IKBKB (IKKβ) and in the assay with THP-1 cells were below 1 µM and 1 to 5 µM, respectively.

Regarding `CC(C)C[C@H](NC/C=C/c1ccc(-c2cc(C(N)=O)c(NC(N)=O)s2)c(Cl)c1)C(=O)OC1CCCC1` [Example 35, Cyclopentyl N-[(2E)-3-{4-[4-carbamoyl-5-(carbamoylamino)thiophen-2-yl]-3-chlorophenyl}prop-2-en-1-yl]-L-leucinate], the IC50 on IKBKB (IKKβ) and in the assay with THP-1 cells was 1 to 5 µM throughout.

With `CC(C)C[C@H](NC/C=C/c1ccc(-c2cc(C(N)=O)c(NC(N)=O)s2)cc1C(F)(F)F)C(=O)OC1CCCC1` [Example 36, Cyclopentyl N-[(2E)-3-{4-[4-carbamoyl-5-(carbamoylamino)thiophen-2-yl]-2-(trifluoromethyl)phenyl}prop-2-en-1-yl]-L-leucinate], the IC50 is 1 to 5 µM at IKBKB (IKKβ) and above 5 µM with THP-1 cells.

For the compound `CC(C)C[C@H](NC/C=C/c1cc(F)c(-c2cc(C(N)=O)c(NC(N)=O)s2)cc1F)C(=O)OC1CCCC1` [Example 37, Cyclopentyl N-[(2E)-3-{4-[4-carbamoyl-5-(carbamoylamino)thiophen-2-yl]-2,5-difluorophenyl}prop-2-en-1-yl]-L-leucinate], the IC50 at IKBKB (IKKβ) and with THP-1 cells was 1 to 5 µM throughout.

As to `C[C@@H](OC(C)(C)C)[C@H](NC/C=C/c1ccc(-c2cc(C(N)=O)c(NC(N)=O)s2)cc1)C(=O)OC1CCCC1` [Example 47, Cyclopentyl O-tert-butyl-N-[(2E)-3-{4-[4-carbamoyl-5-(carbamoylamino)thiophen-2-yl]phenyl}prop-2-en-1-yl]-L-threoninate], the IC50 in the assay on human whole blood is above 5 µM.

For `C[C@@H](O)[C@H](NC/C=C/c1ccc(-c2cc(C(N)=O)c(NC(N)=O)s2)cc1)C(=O)OC1CCCC1` [Example 48, Cyclopentyl N-[(2E)-3-{4-[4-carbamoyl-5-(carbamoylamino)thiophen-2-yl]phenyl}prop-2-en-1-yl]-L-threoninate], the IC50 in the assay with human whole blood lay within 1 to 5 µM.
